Reference: patent US10344004B2, “Inhibitor of the mutated isocitrate dehydrogenase IDH1 R132H” (Bayer Pharma Aktiengesellschaft, priority 2015, dated 2019)

Assay: Relative oral bioavailability (FRel experiment) in Wistar rats
Type: in vivo
Procedure: The relative bioavailability was determined by studies in Wistar rats.
Compound A was firstly administered orally in the form of a solution. For this purpose, the active ingredient was dissolved in a mixture of 80% polyethylene glycol having an average molecular weight of 400 (PEG400) and 20% water. The active ingredient solution is the reference point for determining the relative bioavailability (formulation A1).
Compound A was also administered orally in the form of a tylose suspension (formulation A2).
Compound B was likewise administered orally in the form of a tylose suspension (formulation B).
To prepare a 0.5% aqueous tylose suspension (w/v), tylose was stirred and swelled for about 12 hours in pure water, whereupon a viscous mixture was formed. Compound A and compound B were each ground into the viscous mixture, whereupon the corresponding tylose suspensions were formed (formulation A2 and formulation B).
FIGS. 1a, 1b and 1c show the plasma concentrations of the active ingredient 3-(2-{[4-(trifluoromethoxy)phenyl]amino}-1-[(1R,5R)-3,3,5-trimethylcyclohexyl]-1H-benzimidazol-5-yl)propanoic acid (active ingredient API) after oral administration of compound A in the form of a solution (formulation A1, FIG. 1a), after oral administration of compound A in the form of a suspension (formulation A2, FIG. 1b) and after oral administration of compound B in the form of a suspension (formulation B, FIG. 1c).
For formulation A1, 5 mL/kg body weight were administered. This corresponded to an amount of active ingredient API of 10 mg/kg.
For formulation A2, 5 mL/kg body weight were administered. This corresponded to an amount of active ingredient API of 10 mg/kg.
For formulation B, 2 mL/kg body weight were administered. […]
Plasma concentrations were determined by collecting about 0.4 mL of blood in each case via an indwelling venous catheter. […] The plasma samples were analyzed by LC/MS/MS with respect to the active ingredient 3-(2-{[4-(trifluoromethoxy)phenyl]amino}-1-[(1R,5R)-3,3,5-trimethylcyclohexyl]-1H-benzimidazol-5-yl)propanoic acid.

bioavailability (rat, plasma, tylose suspension (formulation A2), 10 mg/kg API, relative to PEG400/water solution (formulation A1)) [%] | Compound | bioavailability in the FRel experiment (tylose suspension (formulation B), 10.6 mg/kg API, relative to PEG400/water solution of compound A (formulation A1)) [%] | bioavailability compared with the pure free acid (tylose suspensions, comparison in words)
25 | C[C@H]1C[C@@H](n2c(Nc3ccc(OC(F)(F)F)cc3)nc3cc(CCC(=O)O)ccc32)CC(C)(C)C1 [Compound A, 3-(2-{[4-(trifluoromethoxy)phenyl]amino}-1-[(1R,5R)-3,3,5-trimethylcyclohexyl]-1H-benzimidazol-5-yl)propanoic acid] |  | 
 | (2E)-but-2-enedioic acid-3-(2-{[4-(trifluoromethoxy)phenyl]amino}-1-[(1R,5R)-3,3,5-trimethylcyclohexyl]-1H-benzimidazol-5-yl)propanoic acid (1:4) [Compound B] | 110 | distinctly higher bioavailability
